From patent US8828435B2, “Buccal delivery system” (Lingual Consegna Pty Ltd, priority 2006, dated 2014)
Where two headings read alike, the source gives them in different places.

Legend:
[1] = background statement, cited from earlier work; for absorbed fraction of the ingested dose: oral
[2] = Open-label clinical trial: plasma hormone pharmacokinetics after buccal LINGUET tablet, single dose and two weeks twice daily; format: in vivo, post-menopausal women; details: for absorption from the LINGUET tablet: achieved concentrations found in normal young menstruating women
Procedure: The trial was conducted with approval of an ethics committee within the hospital.
The excipients in the LINGUET tablets consisted of silica gel, magnesium stearate, acacia, stevia and polyethylene glycol with a wildberry flavour. The LINGUET tablets employed in this trial were formulated in a single batch for the study using the process according to the invention as described in example 2 above. The LINGUET tablets were provided by Richard Stenlake Compounding Pharmacist (Bondi Junction, Australia).
The study was an open-label investigation in six post-menopausal women. Before entry into the trial, subjects gave informed consent, and underwent medical and biochemical screening. Subjects were in general good health, and at least one year post-menopausal.
Subjects discontinued their prescribed HRT therapy as well as any herbal or alternative medicines not less than three days prior to the first study day. Subjects presented to the Clinical Trials Centre on the morning of each study day after an overnight fast. An indwelling cannula was inserted into a forearm vein and a baseline blood specimen collected.
On the first day, a half-LINGUET tablet was placed in the buccal cavity (between the cheek and the gum) and allowed to dissolve. Subjects were instructed not to swallow the formulation. […] Subjects rinsed their mouths with water at 45 min. Blood samples were collected via the cannula at timed intervals over 24 h. Subjects were discharged, but continued to take half a LINGUET tablet, twice daily, for the following two weeks. Subjects then re-presented to the Clinical Trials Centre where the morning dose was taken and further blood samples were collected at timed intervals over the dosage interval of 12 h.
Blood samples were schedule for collection following the single dose at the following times:
Pre-dose (0), 0.25, 0.5, 0.75, 1.0, 1.5, 2.0, 3.0, 4.0, 6.0, 8.0, 12.0, 16.0, […] and 24.0 h following the single dose, and at pre-dose (0), 0.25. 0.5, 0.75, 1.0, 2.0, 2.5, 3.0, 4.0, 6.0, 8.0, 10.0 and 12 h after the two-week dosing interval (steady-state). Actual times were recorded, and these were used for the pharmacokinetic calculations.
Plasma concentrations of hormones were determined using routine validated, radioimmunoassay techniques in the hospital laboratory (Sydpath, St Vincent's Hospital, Sydney). The laboratory is an accredited pathology provider that participates in national quality assurance programmes for hormonal analysis.
DHEA was monitored as the sulphate metabolite (DHEAS), not as the administered hormone.

[3] = Hormone concentrations in saliva after buccal LINGUET tablet (radioimmunoassay); format: in vivo, post-menopausal women; details: elevation maintained over the following 8-12 hours
Procedure: Saliva was collected according to the standardized directions provided by the laboratory, Australian Reference Laboratories (Melbourne), and stored frozen (−20° C.) prior to shipping for hormonal analysis. In brief, subjects rinsed their mouths thoroughly with water and waited 5-10 min before swallowing any saliva in the mouth. Subjects then expressed saliva directly into the collection tubes.
Saliva samples were obtained for single dose estimation at the following times: pre-dose (0), and 1.0, 4.0, 8.0, 12.0, 16.0 and 24 h after dosing. For steady-state analysis, saliva was collected at pre-dose (0), and 1.0, 4.0, 8.0 and 12.0 h after LINGUET tablet administration.
Hormone concentrations in saliva were conducted by the […] (Melbourne) using validated, commercial radioimmunoassays. This laboratory is similarly an accredited pathology provider.

[4] = plasma, single and multiple dosing

O=P(O)(O)C(O)(Cc1cccnc1)P(=O)(O)O [risedronate]
absorbed fraction of the ingested dose [1]: about 1%

C[C@]12CC[C@H](O)CC1=CC[C@@H]1[C@@H]2CC[C@]2(C)C(=O)CC[C@@H]12 [DHEA, dehydroepiandrosterone]
oral bioavailability [1]: over 90% | absorption from the LINGUET tablet ([2]; plasma): readily absorbed | change of blood concentrations of DHEAS ([2]; single dose one-half LINGUET tablet (5 mg DHEA), over 5-10 hours): doubling

NCCCC(O)(P(=O)(O)O)P(=O)(O)O [alendronate]
absorbed fraction of the ingested dose [1]: about 1%

C[C@]12CC[C@H](OS(=O)(=O)O)CC1=CC[C@@H]1[C@@H]2CC[C@]2(C)C(=O)CC[C@@H]12 [DHEA-sulphate, dehydroepiandrosterone-sulphate]
Tmax Day 1 ([2]; plasma, after the first dose (half LINGUET tablet, buccal)): 6.0 h | Cmax ([2]; plasma, after the first dose (half LINGUET tablet, buccal), read-out: Cmax Day 1): 2.2 ± 1.1 nM | Trough concentration at steady-state ([2]; plasma, after two weeks of twice daily half-tablet, six women, mean ± spread): 2.56 ± 1.99 nmol/L | Tmax Steady-state ([2]; plasma, after two weeks of twice daily treatment): 1.5 h | Cmax ([2]; plasma, after two weeks of twice daily treatment, read-out: Cmax Steady-state): 4 ± 2 nM

C[C@]12CC[C@@H]3c4ccc(O)cc4CC[C@H]3[C@@H]1CC[C@@H]2O [Oestradiol, 17-β-oestradiol]
concentrations in saliva compared with blood following use of the LINGUET tablet [3]: elevated many times higher than in blood

C[C@]12CC[C@H]3[C@@H](CCC4=CC(=O)CC[C@@]43C)[C@@H]1CC[C@@H]2O [Testosterone, testosterone]
Cmax ([2]; female, human, in vivo, plasma, after the first dose (half LINGUET tablet, buccal), read-out: Cmax Day 1): 31.6 ± 10.9 nM | Tmax ([2]; female, human, in vivo, plasma, after the first dose (half LINGUET tablet, buccal), read-out: Tmax Day 1): 0.6 h | concentration at 2 weeks ([2]; female, human, in vivo, plasma, after two weeks of twice daily half-tablet, six women, mean ± spread, read-out: Trough concentration at steady-state): 0.67 ± 0.28 nM | duration of markedly increased plasma concentrations [2, 4]: up to 4 hours | return to pre-treatment values [2, 4]: ≤ 8 h | time of peak concentrations (mean) [2, 4]: 0.6 h | absorption from the LINGUET tablet ([2]; plasma): readily absorbed

CC(=O)[C@H]1CC[C@H]2[C@@H]3CCC4=CC(=O)CC[C@]4(C)[C@H]3CC[C@]12C [Progesterone, progesterone]
concentrations in saliva compared with blood following use of the LINGUET tablet [3]: elevated many times higher than in blood | Cmax ([2]; female, human, in vivo, Cmax Day 1): 22.9 ± 6.9 nM | Cmax ([2]; female, human, in vivo, Cmax Steady-state): 26.1 ± 7.6 nM | Tmax ([2]; female, human, in vivo, Tmax Day 1): 1.5 h | Tmax ([2]; female, human, in vivo, Tmax Steady-state): 1 h | plasma concentration at steady-state versus physiological level ([2]; in vivo): sustained at concentrations usually associated with physiological and biological activity in young normal women | time until concentrations decreased to below those generally associated with biological activity in the endometrium ([2]; in vivo): within five hours
